# Reference: patent publication US20250195513A1, “DEGRADATION OF IRAK4 BY CONJUGATION OF IRAK4 INHIBITORS WITH E3 LIGASE LIGAND AND METHODS OF USE” (BeiGene, Ltd., priority 2022, published 2025)
# How the values were obtained:
# Format in all cases: cell-based
# [1] = system: TNF-α production in THP-1 cells; experiment: TNF-α Production Assay in THP-1 Cells (LPS stimulated); settings: Homo sapiens, THP-1, 24 h; for Emax: maximum inhibition, read-out: TNF-α (THP-1) 24 h IMax
# Procedure: THP-1 cells maintained in RPMI 1640 medium (Thermo Scientific) supplemented with 10% FBS (Thermo Scientific), 100 units/mL penicillin and 0.1 mg/mL streptomycin (Thermo Scientific) were seeded into 96-well plates at the density of 0.2 million cells per well and then treated with compounds for 24 h. Lipopolysaccharide was subsequently added at the final concentration of 1 μg/mL for 24 h. Culture supernatant was collected for measurement of TNF-α concentration by a TR-FRET-based method (Degorce, François, et al. Current chemical genomics. 2009, 3: 22) as described by the manufacturer manual (Cisbio). FRET signals were measured using a PHERAstar FSX reader (BMG Labtech).
# IRAK4 [2] = molecular target: T1, IRAK4 (Homo sapiens, UniProt Q9NWZ3); experiment: IRAK4 Degradation Assay (Karpas299, HTRF/TR-FRET); settings: Karpas-299 cells; for Dmax: maximum percentage of degradation
# T1 construct: endogenous in cells; host or cells: Karpas299
# T1 sequence (Q9NWZ3 1-460): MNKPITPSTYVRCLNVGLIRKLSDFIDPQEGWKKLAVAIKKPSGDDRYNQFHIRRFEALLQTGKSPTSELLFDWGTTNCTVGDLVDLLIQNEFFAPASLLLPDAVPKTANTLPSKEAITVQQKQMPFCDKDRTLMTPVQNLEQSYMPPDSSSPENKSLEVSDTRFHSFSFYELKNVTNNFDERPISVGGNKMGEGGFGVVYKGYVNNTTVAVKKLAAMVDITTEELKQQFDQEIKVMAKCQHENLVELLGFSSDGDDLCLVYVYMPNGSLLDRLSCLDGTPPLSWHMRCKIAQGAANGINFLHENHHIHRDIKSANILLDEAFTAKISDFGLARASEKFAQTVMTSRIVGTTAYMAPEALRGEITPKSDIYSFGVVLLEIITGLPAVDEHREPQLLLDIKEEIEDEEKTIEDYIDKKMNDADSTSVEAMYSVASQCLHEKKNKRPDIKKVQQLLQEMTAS
# How it was run: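 Compound potency as DC50 (IC50) came from four-parameter fits of percent IRAK4 degradation. IRAK4 was measured by HTRF (665/620 nm) in lysates of Karpas299 cells seeded at 0.2 million per well. Cells had been treated with compound dilutions for 5 or 24 h.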
# IRAK4 [3] = molecular target: T1, IRAK4; experiment: IRAK4 Degradation Assay with Human Serum (Karpas299, HTRF/TR-FRET); settings: Karpas-299 in human serum, 24 hrs treatment; for DC50: read-out: IRAK4 degradtion with human serum assay DC50; for Dmax: read-out: IRAK4 degradtion with human serum assay Dmax (%)
# How it was run: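 Remaining IRAK4 measured by TR-FRET immunoassay on lysates of Karpas299 cells exposed 24 h to compound dilution series in human serum AB. DC50 derived from a Hill-slope fit of % degradation versus concentration.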
# [4] = 5 h treatment, read-out: IRAK4 in Karpas-299 (5 h) Dmax (%)
# [5] = 5 h treatment, read-out: IRAK4 in Karpas-299 (5 h) DC50
# [6] = 24 h treatment, read-out: IRAK4 in Karpas-299 (24 h) Dmax (%)
# [7] = 24 h treatment, read-out: IRAK4 in Karpas-299 (24 h) DC50
IC50 [1] [nM],Dmax (IRAK4 [2]; [4]) [%],DC50 (IRAK4 [2]; [5]) [nM],Dmax (IRAK4 [2]; [6]) [%],DC50 (IRAK4 [2]; [7]) [nM],DC50 (IRAK4 [3]) [nM],Dmax (IRAK4 [3]) [%],Compound,Emax [1] [%]
36,97,3.1,98,0.7,21,98,"CC(C)(O)c1cc2nn([C@H]3CC[C@H](N4CCN(C(=O)C5CN(c6cc(F)c(N7CCC(=O)NC7=O)c(F)c6)C5)CC4)CC3)cc2cc1NC(=O)c1ccc2cc(C#N)cnn12 [Example 105, 3-cyano-N-(2-((1r,4r)-4-(4-(1-(4-(2,4-dioxotetrahydropyrimidin-1(2H)-yl)-3,5-difluorophenyl)azetidine-3-carbonyl)piperazin-1-yl)cyclohexyl)-6-(2-hydroxypropan-2-yl)-2H-indazol-5-yl)pyrrolo[1,2-b]pyridazine-7-carboxamide]",78
120,96,12,97,1.6,,,"COc1cc2nn([C@H]3CC[C@H](N4CCN(C(=O)C5CN(c6cc(F)c(N7CCC(=O)NC7=O)c(F)c6)C5)CC4)CC3)cc2cc1NC(=O)c1cccc(C(F)(F)F)n1 [Example 176, N-(2-((1r,4r)-4-(4-(1-(4-(2,4-dioxotetrahydropyrimidin-1(2H)-yl)-3,5-difluorophenyl)azetidine-3-carbonyl)piperazin-1-yl)cyclohexyl)-6-methoxy-2H-indazol-5-yl)-6-(trifluoromethyl)picolinamide]",78
30,97,2,97,0.4,11,101,"CC(C)(O)c1cc2nn([C@H]3CC[C@H](N4CCN(C(=O)[C@@H]5CCN(c6cc(F)c([C@H]7CCC(=O)NC7=O)c(F)c6)C5)CC4)CC3)cc2cc1NC(=O)c1ccc2cc(C#N)cnn12 [Example 181, 3-cyano-N-(2-((1R,4r)-4-(4-((R)-1-(4-((R)-2,6-dioxopiperidin-3-yl)-3,5-difluorophenyl)pyrrolidine-3-carbonyl)piperazin-1-yl)cyclohexyl)-6-(2-hydroxypropan-2-yl)-2H-indazol-5-yl)pyrrolo[1,2-b]pyridazine-7-carboxamide]",69
12,,,96,0.7,14,100,"COC[C@H]1CN([C@H]2CC[C@H](n3cc4cc(NC(=O)c5ccc6cc(C#N)cnn56)c(C(C)(C)O)cc4n3)CC2)CCN1C(=O)C1CN(c2cc(F)c([C@H]3CCC(=O)NC3=O)c(F)c2)C1 [Example 185, 3-cyano-N-(2-((1R,4r)-4-((R)-4-(1-(4-((R)-2,6-dioxopiperidin-3-yl)-3,5-difluorophenyl)azetidine-3-carbonyl)-3-(methoxymethyl)piperazin-1-yl)cyclohexyl)-6-(2-hydroxypropan-2-yl)-2H-indazol-5-yl)pyrrolo[1,2-b]pyridazine-7-carboxamide]",91
29,,,99,0.9,9.2,101,"COC[C@@H]1CN([C@H]2CC[C@H](n3cc4cc(NC(=O)c5ccc6cc(C#N)cnn56)c(C(C)(C)O)cc4n3)CC2)CCN1C(=O)C1CN(c2cc(F)c([C@H]3CCC(=O)NC3=O)c(F)c2)C1 [Example 186, 3-cyano-N-(2-((1S,4r)-4-((S)-4-(1-(4-((R)-2,6-dioxopiperidin-3-yl)-3,5-difluorophenyl)azetidine-3-carbonyl)-3-(methoxymethyl)piperazin-1-yl)cyclohexyl)-6-(2-hydroxypropan-2-yl)-2H-indazol-5-yl)pyrrolo[1,2-b]pyridazine-7-carboxamide]",89
20,,,97,0.4,5.8,102,"CC(C)(O)c1cc2nn([C@H]3CC[C@H](N4CCN(C(=O)CNc5cc(F)c([C@H]6CCC(=O)NC6=O)c(F)c5)CC4)CC3)cc2cc1NC(=O)c1ccc2cc(C#N)cnn12 [Example 193, 3-cyano-N-(2-((1R,4r)-4-(4-((4-((R)-2,6-dioxopiperidin-3-yl)-3,5-difluorophenyl)glycyl)piperazin-1-yl)cyclohexyl)-6-(2-hydroxypropan-2-yl)-2H-indazol-5-yl)pyrrolo[1,2-b]pyridazine-7-carboxamide]",58
30,93,1.6,98,1.1,6.2,96,"CC(C)(O)c1cc2nn([C@H]3CC[C@H](N4CCN(CCNc5cc(F)c([C@H]6CCC(=O)NC6=O)c(F)c5)CC4)CC3)cc2cc1NC(=O)c1ccc2cc(C#N)cnn12 [Example 194, 3-cyano-N-(2-((1R,4r)-4-(4-(2-((4-((R)-2,6-dioxopiperidin-3-yl)-3,5-difluorophenyl)amino)ethyl)piperazin-1-yl)cyclohexyl)-6-(2-hydroxypropan-2-yl)-2H-indazol-5-yl)pyrrolo[1,2-b]pyridazine-7-carboxamide]",53
118,97,13,98,2.8,10,98,"CC(C)(O)c1cc2nn([C@H]3CC[C@H](N4CCN(C5CCN(c6ccc(C7CCC(=O)NC7=O)cc6)CC5)CC4)CC3)cc2cc1NC(=O)c1ccc2cc(C#N)cnn12 (some centres unmarked) [Example 195, 3-cyano-N-(2-((1r,4r)-4-(4-(1-(4-(2,6-dioxopiperidin-3-yl)phenyl)piperidin-4-yl)piperazin-1-yl)cyclohexyl)-6-(2-hydroxypropan-2-yl)-2H-indazol-5-yl)pyrrolo[1,2-b]pyridazine-7-carboxamide]",72
6.7,,,96,0.8,11,99,"CC(C)(O)c1cc2nn([C@H]3C[C@H](N4CCN(C(=O)C5CN(c6cc(F)c([C@H]7CCC(=O)NC7=O)c(F)c6)C5)CC4)C3)cc2cc1NC(=O)c1ccc2cc(C#N)cnn12 [Example 201, 3-cyano-N-(2-((1R,3r)-3-(4-(1-(4-((R)-2,6-dioxopiperidin-3-yl)-3,5-difluorophenyl)azetidine-3-carbonyl)piperazin-1-yl)cyclobutyl)-6-(2-hydroxypropan-2-yl)-2H-indazol-5-yl)pyrrolo[1,2-b]pyridazine-7-carboxamide]",80
19,,,98,0.8,6.3,101,COc1cc(N2CC(C(=O)N3CCN([C@H]4CC[C@H](n5cc6cc(NC(=O)c7ccc8cc(C#N)cnn78)c(C(C)(C)O)cc6n5)CC4)CC3)C2)ccc1[C@H]1CCC(=O)NC1=O [Example 259],90
24,,,97,1.8,11,94,COc1cc(N2CC(C(=O)N3CCN([C@H]4CC[C@H](n5cc6cc(NC(=O)c7ccc8cc(C#N)cnn78)c(C(C)(C)O)cc6n5)CC4)CC3)C2)ccc1N1CCC(=O)NC1=O [Example 269],89
13,,,99,0.3,9.8,103,"C[C@@H]1CN(C(=O)C2CN(c3cc(F)c([C@H]4CCC(=O)NC4=O)c(F)c3)C2)CCN1[C@H]1CC[C@H](n2cc3cc(NC(=O)c4ccc5cc(C#N)cnn45)c(C(C)(C)O)cc3n2)CC1 [Example 298, 3-cyano-N-(2-((1R,4r)-4-((R)-4-(1-(4-((R)-2,6-dioxopiperidin-3-yl)-3,5-difluorophenyl)azetidine-3-carbonyl)-2-methylpiperazin-1-yl)cyclohexyl)-6-(2-hydroxypropan-2-yl)-2H-indazol-5-yl)pyrrolo[1,2-b]pyridazine-7-carboxamide]",93
